Experiments:
VMAT2 = VMAT2 (Rattus norvegicus, UniProt Q01827); experiment: Vesicular [3H]DA uptake assay; type: biochemical; details: for further improvement in inhibitory potency at VMAT2 on hydrolysis of the 4-acetoxy groups: relative to acetoxy precursors 4 and 5
SERT = SERT (Rattus norvegicus, UniProt P31652); experiment: Synaptosomal [3H]5-HT uptake assay; type: biochemical
SERT, sequence (P31652 whole entry): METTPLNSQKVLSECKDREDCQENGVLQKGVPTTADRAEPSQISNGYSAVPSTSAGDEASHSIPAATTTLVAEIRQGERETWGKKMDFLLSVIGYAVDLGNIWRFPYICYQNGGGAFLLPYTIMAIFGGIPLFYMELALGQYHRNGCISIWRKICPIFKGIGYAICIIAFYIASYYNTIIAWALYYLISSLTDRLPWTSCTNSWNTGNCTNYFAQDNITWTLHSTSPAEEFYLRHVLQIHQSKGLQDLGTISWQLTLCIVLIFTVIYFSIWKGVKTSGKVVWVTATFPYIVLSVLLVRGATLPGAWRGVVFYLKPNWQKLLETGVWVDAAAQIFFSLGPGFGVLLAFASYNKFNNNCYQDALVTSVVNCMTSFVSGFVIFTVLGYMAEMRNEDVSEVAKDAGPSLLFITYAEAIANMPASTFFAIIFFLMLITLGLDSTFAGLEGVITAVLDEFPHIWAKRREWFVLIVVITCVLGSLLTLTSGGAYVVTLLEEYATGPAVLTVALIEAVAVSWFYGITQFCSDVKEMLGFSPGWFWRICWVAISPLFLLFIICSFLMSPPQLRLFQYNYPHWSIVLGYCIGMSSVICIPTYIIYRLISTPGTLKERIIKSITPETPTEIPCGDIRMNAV

VMAT2, sequence (Q01827 whole entry): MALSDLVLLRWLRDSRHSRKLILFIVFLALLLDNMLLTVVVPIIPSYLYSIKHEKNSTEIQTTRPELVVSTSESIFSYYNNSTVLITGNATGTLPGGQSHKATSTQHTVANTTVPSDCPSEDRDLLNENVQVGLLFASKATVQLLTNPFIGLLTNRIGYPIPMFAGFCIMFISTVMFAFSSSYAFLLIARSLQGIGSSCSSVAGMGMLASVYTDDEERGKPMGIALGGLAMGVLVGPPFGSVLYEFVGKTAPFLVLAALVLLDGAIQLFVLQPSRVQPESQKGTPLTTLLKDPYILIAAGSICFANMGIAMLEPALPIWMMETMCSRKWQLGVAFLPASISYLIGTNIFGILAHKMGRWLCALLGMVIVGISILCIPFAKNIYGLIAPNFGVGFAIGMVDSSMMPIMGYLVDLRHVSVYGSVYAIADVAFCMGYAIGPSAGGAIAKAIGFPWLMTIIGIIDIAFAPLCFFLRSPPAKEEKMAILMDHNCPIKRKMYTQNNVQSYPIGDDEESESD

CC(=O)Oc1ccc(CC[C@H]2CCC[C@@H](CCc3ccc(OC(C)=O)cc3)N2C)cc1.Cl [Compound 5]
improved inhibitory potency at VMAT2 relative to 4 (VMAT2; N-methylation of 4): 3 fold

Cl.Oc1ccc(CC[C@H]2CCC[C@@H](CCc3ccc(O)cc3)N2)cc1 [Compound 7]
further improvement in inhibitory potency at VMAT2 on hydrolysis of the 4-acetoxy groups (VMAT2): about 2 fold

Cl.FCCOc1ccc(CC[C@H]2CCC[C@@H](CCc3ccc(OCCF)cc3)N2)cc1 [Compound 13]
greater affinity for SERT than lobelane (SERT): 6 fold

Cl.OC[C@H](O)CN1[C@@H](CCc2ccc(O)cc2)CCC[C@H]1CCc1ccc(OCCF)cc1 [Compound 16]
greater affinity for SERT than GZ-793A (SERT): 7 fold

Cl.OC[C@H](O)CN1[C@@H](CCc2ccc(OCCF)cc2)CCC[C@H]1CCc1ccc(OCCF)cc1 [Compound 17]
decrease in affinity for SERT when compared to GZ-793A (SERT): 4 fold

CN1[C@@H](CCc2ccc(O)cc2)CCC[C@H]1CCc1ccc(O)cc1.Cl [Compound 6]
further improvement in inhibitory potency at VMAT2 on hydrolysis of the 4-acetoxy groups (VMAT2): about 2 fold
